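Where inhibition never reached the appropriate level, the endpoint shown equals the highest concentration tested. Otherwise, values were interpolated linearly from a five-concentration, 48-hour dose response in 96-well plates. Definition used: TGI = concentration required for complete inhibition of growth.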
What was measured:
Test in all cases: NCI anticancer screen, dose series, 48 h
RXF 393 renal = system: RXF 393 renal
M19-MEL melanoma = system: M19-MEL melanoma
U251 CNS = system: U251 CNS
CCRF-CEM leukemia = system: CCRF-CEM leukemia
SNB-19 CNS = system: SNB-19 CNS
NCI-H522 lung = system: NCI-H522 lung
TK-10 renal = system: TK-10 renal
OVCAR-3 ovarian = system: OVCAR-3 ovarian
ACHN renal = system: ACHN renal
DLD-1 colon = system: DLD-1 colon
OVCAR-5 ovarian = system: OVCAR-5 ovarian
EKVX NSCLC = system: EKVX NSCLC
LXFL 529 NSCLC = system: LXFL 529 NSCLC
LOX IMVI melanoma = system: LOX IMVI melanoma
HOP-18 NSCLC = system: HOP-18 NSCLC
COLO 205 colon = system: COLO 205 colon
HL-60(TB) leukemia = system: HL-60(TB) leukemia
SN12C renal = system: SN12C renal
KM20L2 colon = system: KM20L2 colon
A549 NSCLC = system: A549 NSCLC
SK-MEL-2 melanoma = system: SK-MEL-2 melanoma
NCI-H460 lung = system: NCI-H460 lung
CAKI-1 renal = system: CAKI-1 renal
HCC-2998 colon = system: HCC-2998 colon
OVCAR-4 ovarian = system: OVCAR-4 ovarian
SF-268 CNS = system: SF-268 CNS
SF-295 CNS = system: SF-295 CNS
DMS 114 small cell lung = system: DMS 114 small cell lung
MOLT-4 leukemia = system: MOLT-4 leukemia
M14 melanoma = system: M14 melanoma
SNB-75 CNS = system: SNB-75 CNS
RXF-631 renal = system: RXF-631 renal
DMS 273 small cell lung = system: DMS 273 small cell lung
UO-31 renal = system: UO-31 renal
KM12 colon = system: KM12 colon
HOP-62 NSCLC = system: HOP-62 NSCLC
MALME-3M melanoma = system: MALME-3M melanoma
NCI-H23 lung = system: NCI-H23 lung
K-562 leukemia = system: K-562 leukemia
786-0 renal = system: 786-0 renal
UACC-257 melanoma = system: UACC-257 melanoma
SR leukemia = system: SR leukemia
HCT-116 colon = system: HCT-116 colon
UACC-62 melanoma = system: UACC-62 melanoma
IGROV1 ovarian = system: IGROV1 ovarian
SW-620 colon = system: SW-620 colon
NCI-H226 lung = system: NCI-H226 lung
HT29 colon = system: HT29 colon
SK-MEL-28 melanoma = system: SK-MEL-28 melanoma
HCT-15 colon = system: HCT-15 colon
OVCAR-8 ovarian = system: OVCAR-8 ovarian
SK-MEL-5 melanoma = system: SK-MEL-5 melanoma
SK-OV-3 ovarian = system: SK-OV-3 ovarian
SNB-78 CNS = system: SNB-78 CNS
A498 renal = system: A498 renal
HOP-92 NSCLC = system: HOP-92 NSCLC

Measured: TGI

COc1ccc(C(=O)O)c(Cc2cccc3ccccc23)c1
not listed: SNB-78 CNS | A498 renal | HOP-92 NSCLC
> 100 µM: all other assays above

NCC(=O)NC(CCCC(NC(=O)CN)P(=O)(O)O)P(=O)(O)O (stereo not drawn)
not listed: SNB-19 CNS | OVCAR-3 ovarian | DLD-1 colon | LXFL 529 NSCLC | LOX IMVI melanoma | HOP-18 NSCLC | COLO 205 colon | SN12C renal | SK-MEL-2 melanoma | CAKI-1 renal | HCC-2998 colon | OVCAR-4 ovarian | SF-268 CNS | SNB-75 CNS | UO-31 renal | MALME-3M melanoma | K-562 leukemia | 786-0 renal | SW-620 colon | HCT-15 colon | SK-MEL-5 melanoma
> 100 µM: all other assays above
